Experimental data: patent US8168779B2, “Anhydrous crystalline β-maltose, its preparation and uses” (priority 2006, dated 2012)

Columns and labels:
Type in all cases: physicochemical
[1] = Powderizing test by admixing dehydrated ethanol
Description: The usefulness of the crystal was judged by the amount of deionized water added to the limit of keeping the powder form. The form of the powder was evaluated by the following four phases: (1) powder; (2) lump (it keeps a powder form while it comprises lumps); (3) cake; and (4) paste. As a control, the anhydrous crystalline α-maltose used in Example 2 was treated by the same procedure. The test was carried out in a room where the temperature was kept at 25° C. The results of the test and the form of each sample after admixing with 1.25 ml of deionized water are shown in Table 7 and FIG. 15, respectively. […] The results of the test and the form of each sample after admixing with 6 ml of dehydrated ethanol are shown in Table 8 and FIG. 16, respectively.

[2] = Powderizing test by admixing deionized water; settings: 25° C.
Description: The usefulness of the crystal was judged by the amount of deionized water added to the limit of keeping the powder form. The form of the powder was evaluated by the following four phases: (1) powder; (2) lump (it keeps a powder form while it comprises lumps); (3) cake; and (4) paste. As a control, the anhydrous crystalline α-maltose used in Example 2 was treated by the same procedure. The test was carried out in a room where the temperature was kept at 25° C. The results of the test and the form of each sample after admixing with 1.25 ml of deionized water are shown in Table 7 and FIG. 15, respectively.

[3] = Specific surface area by nitrogen adsorption isotherms (BET); settings: BET method, listed as anhydrous crystalline β-maltose converted by the ethanol treatment
Description: About 3 g of the anhydrous crystalline β-maltose, obtained in Example 1, was dried in the apparatus under a reduced pressure at about 40° C. for about 15 hours as a pretreatment, and then used for the measurement of specific surface area by the nitrogen adsorption isotherms. The result was analyzed by conventional BET (Brunnauer, Emmet, and Teller) method.

[4] = Hygroscopicity test (moisture content under controlled relative humidity); settings: 27° C.
Description: Moisture contents of the samples at respective periods were measured based on the change of weight from the start of the test. The moisture contents of the samples at the start of the test were measured by Karl Fischer's method.

## OC[C@H]1O[C@H](O[C@H]2[C@H](O)[C@@H](O)[C@H](O)O[C@@H]2CO)[C@H](O)[C@@H](O)[C@@H]1O [anhydrous crystalline β-maltose]
[1]; 10 g crystal + 3.0 ml ethanol (24.3 v/w %)
  Form of the powder after admixing dehydrated ethanol: Powder form
[1]; 10 g crystal + 3.5 ml ethanol (27.5 v/w %)
  Form of the powder after admixing dehydrated ethanol: Powder form
[1]; 10 g crystal + 4.0 ml ethanol (30.5 v/w %)
  Form of the powder after admixing dehydrated ethanol: Powder form
[1]; 10 g crystal + 4.5 ml ethanol (33.3 v/w %)
  Form of the powder after admixing dehydrated ethanol: Powder form
[1]; 10 g crystal + 5.0 ml ethanol (36.0 v/w %)
  Form of the powder after admixing dehydrated ethanol: Powder form
[1]; 10 g crystal + 5.5 ml ethanol (38.5 v/w %)
  Form of the powder after admixing dehydrated ethanol: Powder form
[1]; 10 g crystal + 6.0 ml ethanol (40.9 v/w %)
  Form of the powder after admixing dehydrated ethanol: Powder form
[1]; 10 g crystal + 7.0 ml ethanol (45.3 v/w %)
  Form of the powder after admixing dehydrated ethanol: Powder form
[1]; 10 g crystal + 8.0 ml ethanol (49.3 v/w %)
  Form of the powder after admixing dehydrated ethanol: Powder form
[1]; 10 g crystal + 9.0 ml ethanol (52.9 v/w %)
  Form of the powder after admixing dehydrated ethanol: Lump form
[1]; 10 g crystal + 10.0 ml ethanol (56.2 v/w %)
  Form of the powder after admixing dehydrated ethanol: Lump form
[1]; 10 g crystal + 11.0 ml ethanol (59.2 v/w %)
  Form of the powder after admixing dehydrated ethanol: Cake form
[2]; 10 g crystal + 0.25 ml water (moisture content 2.4%, w/w)
  Form of the powder after admixing deionized water: Powder form
[2]; 10 g crystal + 0.50 ml water (moisture content 4.8%, w/w)
  Form of the powder after admixing deionized water: Powder form
[2]; 10 g crystal + 0.75 ml water (moisture content 7.0%, w/w)
  Form of the powder after admixing deionized water: Powder form
[2]; 10 g crystal + 1.00 ml water (moisture content 9.1%, w/w)
  Form of the powder after admixing deionized water: Powder form
[2]; 10 g crystal + 1.25 ml water (moisture content 11.1%, w/w)
  Form of the powder after admixing deionized water: Powder form
[2]; 10 g crystal + 1.50 ml water (moisture content 13.0%, w/w)
  Form of the powder after admixing deionized water: Lump form
[2]; 10 g crystal + 1.75 ml water (moisture content 14.9%, w/w)
  Form of the powder after admixing deionized water: Lump form
[2]; 10 g crystal + 2.00 ml water (moisture content 16.7%, w/w)
  Form of the powder after admixing deionized water: Lump form
[3]
  Specific surface area: 3.39 m^2/g
[4]; RH 47% (lithium nitrate), 0 hour (start, Karl Fischer), listed as AC* β-Mal (Present invention)
  Moisture content of samples: 0.32 %, w/w
[4]; RH 47% (lithium nitrate), 2 hours, listed as AC* β-Mal (Present invention)
  Moisture content of samples: 0.30 %, w/w
[4]; RH 47% (lithium nitrate), 4 hours, listed as AC* β-Mal (Present invention)
  Moisture content of samples: 0.28 %, w/w
[4]; RH 47% (lithium nitrate), 24 hours, listed as AC* β-Mal (Present invention)
  Moisture content of samples: 0.27 %, w/w
[4]; RH 47% (lithium nitrate), 96 hours, listed as AC* β-Mal (Present invention)
  Moisture content of samples: 0.34 %, w/w
[4]; RH 47% (lithium nitrate), 192 hours, listed as AC* β-Mal (Present invention)
  Moisture content of samples: 0.28 %, w/w
[4]; RH 58% (sodium bromide), 0 hour (start, Karl Fischer), listed as AC β-Mal (Present invention)
  Moisture content of samples: 0.32 %, w/w
[4]; RH 58% (sodium bromide), 2 hours, listed as AC β-Mal (Present invention)
  Moisture content of samples: 0.32 %, w/w
[4]; RH 58% (sodium bromide), 4 hours, listed as AC β-Mal (Present invention)
  Moisture content of samples: 0.33 %, w/w
[4]; RH 58% (sodium bromide), 6 hours, listed as AC β-Mal (Present invention)
  Moisture content of samples: 0.36 %, w/w
[4]; RH 58% (sodium bromide), 8 hours, listed as AC β-Mal (Present invention)
  Moisture content of samples: 0.35 %, w/w
[4]; RH 58% (sodium bromide), 24 hours, listed as AC β-Mal (Present invention)
  Moisture content of samples: 0.35 %, w/w
[4]; RH 58% (sodium bromide), 96 hours, listed as AC β-Mal (Present invention)
  Moisture content of samples: 1.47 %, w/w
[4]; RH 58% (sodium bromide), 192 hours, listed as AC β-Mal (Present invention)
  Moisture content of samples: 4.16 %, w/w
[4]; RH 75% (sodium chloride), 0 hour (start, Karl Fischer), listed as AC β-Mal (Present invention)
  Moisture content of samples: 0.32 %, w/w
[4]; RH 75% (sodium chloride), 2 hours, listed as AC β-Mal (Present invention)
  Moisture content of samples: 0.66 %, w/w
[4]; RH 75% (sodium chloride), 4 hours, listed as AC β-Mal (Present invention)
  Moisture content of samples: 2.37 %, w/w
[4]; RH 75% (sodium chloride), 6 hours, listed as AC β-Mal (Present invention)
  Moisture content of samples: 3.93 %, w/w
[4]; RH 75% (sodium chloride), 8 hours, listed as AC β-Mal (Present invention)
  Moisture content of samples: 4.51 %, w/w
[4]; RH 75% (sodium chloride), 24 hours, listed as AC β-Mal (Present invention)
  Moisture content of samples: 4.54 %, w/w
[4]; RH 75% (sodium chloride), 96 hours, listed as AC β-Mal (Present invention)
  Moisture content of samples: 4.57 %, w/w
[4]; RH 75% (sodium chloride), 192 hours, listed as AC β-Mal (Present invention)
  Moisture content of samples: 5.19 %, w/w
[4]; RH 90% (barium chloride), 0 hour (start, Karl Fischer), listed as AC β-Mal (Present invention)
  Moisture content of samples: 0.32 %, w/w
[4]; RH 90% (barium chloride), 2 hours, listed as AC β-Mal (Present invention)
  Moisture content of samples: 1.72 %, w/w
[4]; RH 90% (barium chloride), 4 hours, listed as AC β-Mal (Present invention)
  Moisture content of samples: 4.53 %, w/w
[4]; RH 90% (barium chloride), 6 hours, listed as AC β-Mal (Present invention)
  Moisture content of samples: 4.79 %, w/w
[4]; RH 90% (barium chloride), 8 hours, listed as AC β-Mal (Present invention)
  Moisture content of samples: 4.58 %, w/w
[4]; RH 90% (barium chloride), 24 hours, listed as AC β-Mal (Present invention)
  Moisture content of samples: 4.66 %, w/w
[4]; RH 90% (barium chloride), 96 hours, listed as AC β-Mal (Present invention)
  Moisture content of samples: 4.82 %, w/w
[4]; RH 90% (barium chloride), 192 hours, listed as AC β-Mal (Present invention)
  Moisture content of samples: 5.38 %, w/w
